Measured values published in article PMC10122656, “Siglec-6 mediates the uptake of extracellular vesicles through a noncanonical glycolipid binding pocket” (Nature Communications, 2023).
Several values for one entry are separate records, joined by “and”; a condition that tells them apart may be missing. Equal values may be shown once.

Experiments:
Assay in all cases: Cell assay (liposome/EV binding, flow cytometry)
Format in all cases: cell-based
Siglec-9 WT CHO cells = target: T1, Siglec-9 WT CHO cells (Homo sapiens, UniProt Q9Y336); details: for log10(MFI AF647) of GLL relative to log10(MFI AF647) of the same GLL against UT CHO cells (Fig. 2a): Sig-9 WT†, † after treatment of cells with neuraminidase, 3 mol% ganglioside liposomes, replicates
T1 construct: expressed in transfected cells
T1 sequence (Q9Y336 18-463): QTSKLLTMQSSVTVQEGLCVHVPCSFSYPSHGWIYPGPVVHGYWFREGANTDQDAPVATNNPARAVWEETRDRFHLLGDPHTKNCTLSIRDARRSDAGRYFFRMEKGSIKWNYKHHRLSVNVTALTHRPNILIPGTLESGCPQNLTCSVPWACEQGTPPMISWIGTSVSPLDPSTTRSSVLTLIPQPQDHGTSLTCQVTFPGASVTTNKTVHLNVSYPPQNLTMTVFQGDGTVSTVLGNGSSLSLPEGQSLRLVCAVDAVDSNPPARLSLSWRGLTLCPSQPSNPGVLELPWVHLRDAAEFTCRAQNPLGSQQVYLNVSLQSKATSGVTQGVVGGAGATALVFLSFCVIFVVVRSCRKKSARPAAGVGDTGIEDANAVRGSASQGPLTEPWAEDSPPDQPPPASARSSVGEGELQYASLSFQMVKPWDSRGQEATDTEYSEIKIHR
Method: (§1) Stock lipids (DSPC, Cholesterol, PEG45–DSPE) solutions were prepared by solvating the lipids in chloroform. An appropriate volume of each lipid solution was transferred to a glass test tube to reach the desired mol% of the component. The chloroform was then removed under N2 gas to yield a lipid thin film. Once dry, 100 µL of DMSO was added to the lipid-containing test tube and then the functional lipids (ganglioside, AF647–PEG45–DSPE, Siglec ligand–PEG45–DSPE, pHrodo–PEG45–DSPE, NGL) was added from their respect DMSO stock solution. The lipid mixture was then stored at −80 °C until completely frozen at which point excess DMSO was removed via lyophilization. Dry lipids were then stored at −80 °C until they were extruded. Lipid suppliers can be found in Supplementary Table 4.
(§2) Dry lipids were then hydrated in 1 mL of PBS. The lipids were then sonicated in a bath sonicator in a cycle of 1 min on, 5 min off for a total of five cycles. Liposomes were then extruded using an Avanti mini extruder first using an 800 nm filter and then a 100 nm filter yielding liposomes that were 130 ± 35 nm (Supplementary Table 5) measured using a Malvern Panalytical Zetasizer Nano S. Liposomes were stored at 4 °C.
(§3) 200,000 cells/well were plated into a 96-well U-bottom microplate and centrifuged at 300 × g for 5 min. The cells were then resuspended in 50 µL of 50 µM liposome/50 µg/mL (protein concentration) of EV solution in DMEM F12 5% FBS and incubated at 37 °C for 30 min. Excess liposomes were then removed via centrifuged at 300 × g for 5 min followed by washing the cells with FACS solution. The cells were then resuspended in (1:250 V/V) anti-Siglec-flow buffer (1% V/V FBS, 500 µM, EDTA Hank’s Balanced Salt Solution pH 7.4), solution and left to rest on ice for 30 min. The cells were then centrifuged again at 300 × g for 5 min and the cells were resuspended in FACS buffer solution and were then ready for analysis by flow cytometry. Information regarding antibody clone, catalog number supplier, label isotype, and dilution can be found in Supplementary Table 6. The Siglec-positive cells were gated on for liposome-binding analysis (Supplementary Fig. 1b).
(§4) Flow cytometry measurements were collected on a 5-laser Fortessa X-20 (BD Bioscience). All the resulting data were analyzed using FlowJo (10.5.3) software (BD Biosciences).
(§5) Cells were harvested and resuspended in complete media with either Neuraminidase A or S. The cells were then placed in a 37 °C shaking incubator for 1 h. The cells were then washed with complete media and then the liposome binding assay was performed as described above.

Siglec-4 WT CHO cells = target: T2, Siglec-4 WT CHO cells (Homo sapiens, UniProt P20916); details: Sig-4 WT†; † after treatment of cells with neuraminidase; 3 mol% ganglioside liposomes; replicates
T2 construct: expressed in transfected cells
T2 sequence (P20916 20-626): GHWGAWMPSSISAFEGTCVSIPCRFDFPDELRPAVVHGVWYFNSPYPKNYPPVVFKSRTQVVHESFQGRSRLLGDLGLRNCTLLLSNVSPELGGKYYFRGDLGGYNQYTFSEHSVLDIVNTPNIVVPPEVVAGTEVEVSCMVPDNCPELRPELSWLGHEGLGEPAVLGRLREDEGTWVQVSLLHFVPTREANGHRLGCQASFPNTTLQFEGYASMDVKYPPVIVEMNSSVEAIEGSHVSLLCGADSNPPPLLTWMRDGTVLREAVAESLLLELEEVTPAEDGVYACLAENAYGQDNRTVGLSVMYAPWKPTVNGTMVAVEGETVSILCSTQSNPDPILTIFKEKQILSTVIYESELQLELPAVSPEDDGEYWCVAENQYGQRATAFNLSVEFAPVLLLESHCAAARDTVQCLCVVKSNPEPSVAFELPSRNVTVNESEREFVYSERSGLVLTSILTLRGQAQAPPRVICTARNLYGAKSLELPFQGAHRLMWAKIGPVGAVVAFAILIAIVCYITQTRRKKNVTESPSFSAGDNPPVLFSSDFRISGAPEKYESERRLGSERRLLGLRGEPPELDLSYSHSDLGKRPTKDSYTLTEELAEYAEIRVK
Method: as §1, §2, §3, §4, §5

Siglec-7 R124A CHO cells = target: T3, Siglec-7 R124A CHO cells (Homo sapiens, UniProt Q9Y286, R124A); details: Sig-7 R124A†; † after treatment of cells with neuraminidase; 3 mol% ganglioside liposomes; replicates
T3 construct: expressed in transfected cells
T3 sequence (Q9Y286 19-467 R124A): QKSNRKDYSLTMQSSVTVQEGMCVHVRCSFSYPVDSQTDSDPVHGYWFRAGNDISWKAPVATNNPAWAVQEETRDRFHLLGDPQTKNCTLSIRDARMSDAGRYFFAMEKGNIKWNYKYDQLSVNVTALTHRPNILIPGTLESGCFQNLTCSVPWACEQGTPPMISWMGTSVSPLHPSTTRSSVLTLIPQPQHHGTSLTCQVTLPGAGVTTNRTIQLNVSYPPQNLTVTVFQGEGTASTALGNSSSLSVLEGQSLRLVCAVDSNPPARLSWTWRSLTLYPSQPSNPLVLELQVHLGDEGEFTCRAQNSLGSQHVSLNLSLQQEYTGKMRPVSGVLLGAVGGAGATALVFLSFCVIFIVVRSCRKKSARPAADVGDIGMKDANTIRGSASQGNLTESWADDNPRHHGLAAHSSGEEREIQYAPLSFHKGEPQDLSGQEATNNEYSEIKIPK
Method: as §1, §2, §3, §4, §5

Siglec-7 WT CHO cells = target: T4, Siglec-7 WT CHO cells (Homo sapiens, UniProt Q9Y286); details: for log10(MFI AF647) of GLL relative to log10(MFI AF647) of the same GLL against UT CHO cells (Fig. 2a): Sig-7 WT†, † after treatment of cells with neuraminidase, 3 mol% ganglioside liposomes, replicates
T4 construct: expressed in transfected cells
T4 sequence (Q9Y286 19-467): as the sequence (Q9Y286 19-467 R124A) above, with A106R counted along it
Method: as §1, §2, §3, §4, §5

Siglec-5 R119A CHO cells = target: T5, Siglec-5 R119A CHO cells (Homo sapiens, UniProt O15389, R119A); details: Sig-5 R119A†; † after treatment of cells with neuraminidase; 3 mol% ganglioside liposomes; replicates
T5 construct: expressed in transfected cells
T5 sequence (O15389 17-551 R119A): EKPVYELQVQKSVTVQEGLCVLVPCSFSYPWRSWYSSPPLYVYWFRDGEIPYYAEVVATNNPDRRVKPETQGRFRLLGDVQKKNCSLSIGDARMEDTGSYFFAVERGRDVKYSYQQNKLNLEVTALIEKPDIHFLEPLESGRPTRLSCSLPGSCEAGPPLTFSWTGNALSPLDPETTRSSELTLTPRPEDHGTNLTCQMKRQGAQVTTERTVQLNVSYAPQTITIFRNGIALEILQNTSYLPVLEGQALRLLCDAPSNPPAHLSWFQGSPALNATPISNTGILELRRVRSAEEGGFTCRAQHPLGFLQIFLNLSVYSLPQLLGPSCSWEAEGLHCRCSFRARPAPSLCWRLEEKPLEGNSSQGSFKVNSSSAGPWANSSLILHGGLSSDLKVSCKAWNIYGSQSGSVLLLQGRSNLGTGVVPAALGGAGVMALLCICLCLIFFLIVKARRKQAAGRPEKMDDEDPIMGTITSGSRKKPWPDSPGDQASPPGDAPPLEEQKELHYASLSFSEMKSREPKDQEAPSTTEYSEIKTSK
Method: as §1, §2, §3, §4, §5

Siglec-9 R120A CHO cells = target: T6, Siglec-9 R120A CHO cells (Homo sapiens, UniProt Q9Y336, R120A); details: Sig-9 R120A†; † after treatment of cells with neuraminidase; 3 mol% ganglioside liposomes; replicates
T6 construct: expressed in transfected cells
T6 sequence (Q9Y336 18-463 R120A): as the sequence (Q9Y336 18-463) above, with R103A counted along it
Method: as §1, §2, §3, §4, §5

Substance | log10(MFI AF647) of GLL relative to log10(MFI AF647) of the same GLL against UT CHO cells (Fig. 2a) (Siglec-9 WT CHO cells) | log10(MFI AF647) of GLL relative to log10(MFI AF647) of the same GLL against UT CHO cells (Fig. 2a) (Siglec-4 WT CHO cells) | log10(MFI AF647) of GLL relative to log10(MFI AF647) of the same GLL against UT CHO cells (Fig. 2a) (Siglec-7 R124A CHO cells) | log10(MFI AF647) of GLL relative to log10(MFI AF647) of the same GLL against UT CHO cells (Fig. 2a) (Siglec-7 WT CHO cells) | log10(MFI AF647) of GLL relative to log10(MFI AF647) of the same GLL against UT CHO cells (Fig. 2a) (Siglec-5 R119A CHO cells) | log10(MFI AF647) of GLL relative to log10(MFI AF647) of the same GLL against UT CHO cells (Fig. 2a) (Siglec-9 R120A CHO cells) | GLL binding to Siglec-7 with increasing ganglioside content (in words) (Siglec-7 WT CHO cells; ganglioside titrated in GLLs, cells treated with neuraminidase S) | GLL binding to Siglec-9 (in words) (Siglec-9 WT CHO cells; cell assay, optimized liposomal formulation)
GD1a | 0.29 (2×) and 0.32 | 1.02 and 0.9 and 0.95 and 0.88 | -0.2 and -0.15 and -0.24 | 0.05 and 0.02 and 0.03 | -0.25 and -0.02 and -0.03 and 0.01 | 0.17 and 0.16 (3×) | – | –
GD1b | 0.27 (2×) and 0.29 | 0.9 and 0.93 and 0.96 and 0.92 | -0.23 (2×) and -0.27 | 0 and -0.03 and -0.01 | 0.17 and -0.03 and -0.02 and 0.04 | 0.12 (2×) and 0.14 (2×) | – | –
GD3 | 0.22 and 0.21 and 0.23 | 0.51 (2×) and 0.52 and 0.5 | -0.08 and -0.02 and -0.1 | 1.01 and 0.98 and 1.03 | -0.21 (2×) and -0.15 (2×) | 0.21 and 0.15 (2×) and 0.19 | decreased above an optimal ganglioside content | –
GM1 | 0.3 and 0.31 (2×) | 0.57 (2×) and 0.53 and 0.49 | -0.08 and -0.05 and -0.01 | -0.1 and -0.11 and -0.08 | -0.32 and -0.33 and -0.29 and -0.28 | 0.14 and 0.1 (2×) and 0.16 | – | –
GM2 | 0.28 and 0.29 and 0.26 | 0.08 (2×) and -0.03 and -0.04 | -0.25 and -0.22 and -0.35 | -0.02 and 0 (2×) | -0.1 and -0.09 (2×) and -0.11 | 0.15 and 0.16 and 0.17 (2×) | – | novel interactions were observed
GM3 | -0.03 and -0.01 (2×) | -0.11 (2×) and -0.14 and -0.2 | -0.45 and -0.31 and -0.25 | -0.16 and -0.14 and -0.13 | -0.22 (2×) and -0.21 and -0.24 | -0.21 and -0.17 and -0.15 and -0.13 | – | –
GM4 | 0.19 (2×) and 0.21 | -0.3 and -0.1 and -0.11 and -0.09 | -0.35 and -0.25 and -0.4 | -0.07 and -0.06 and -0.04 | -0.2 (3×) and -0.21 | 0.05 and 0.07 and 0.08 (2×) | – | –
GQ1b | 0.2 and 0.23 and 0.25 | 0.13 and 0.12 and 0.1 and 0.11 | 0.01 and -0.05 and -0.03 | 1.41 and 1.39 and 1.38 | -0.2 and -0.19 and -0.12 and -0.08 | 0.15 and 0.12 and 0.13 and 0.1 | – | –
GT1b | 0.55 and 0.46 and 0.54 | 1.15 and 1 and 1.11 and 1.1 | -0.17 and -0.19 and -0.09 | 0.54 and 0.42 and 0.56 | -0.05 and -0.03 and 0.02 and 0.1 | 0.16 (2×) and 0.11 and 0.15 | – | –
